Data from patent publication US20180305332A1, “Bispiperidinyl Derivatives as Liver X Receptor Beta Agonists, Compositions, and Their Use” (Merck Sharp & Dohme Corp., priority 2015, published 2018).

Key:
[1] = target: T1, GST tagged LXRbeta LBD (ligand binding domain) (Homo sapiens, UniProt P55055); test: LanthaScreen TR-FRET Liver X Receptor Coactivator Assay, LXR beta-LBD; assay type: biochemical; conditions: relative to reference T0901317; for EC50: Inflection Point (potency), co-activator recruitment, read-out: LXR beta IP; for Emax: activity at max dose (efficacy), read-out: LXR beta act @ max dose (%)
T1 construct: purchased Invitrogen pv4658.pps
T1 sequence (P55055 222-460 limits assumed): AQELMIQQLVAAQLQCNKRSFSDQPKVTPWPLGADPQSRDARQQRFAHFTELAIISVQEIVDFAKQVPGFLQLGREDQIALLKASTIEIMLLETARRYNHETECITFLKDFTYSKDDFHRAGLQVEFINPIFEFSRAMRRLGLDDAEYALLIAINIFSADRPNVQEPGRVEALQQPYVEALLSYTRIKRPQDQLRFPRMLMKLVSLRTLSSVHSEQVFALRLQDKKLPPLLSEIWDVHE
How it was run: (§1)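 GST-tagged human LXRα or LXRβ LBD was mixed with test compound, then fluorescein-labelled coactivator peptide and terbium anti-GST antibody added. After room-temperature incubation, TR-FRET was read. Inflection point and Emax expressed relative to reference dual agonist T0901317.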

[2] = target: T2, GST tagged LXRalpha LBD (ligand binding domain) (Homo sapiens, UniProt Q13133); test: LanthaScreen TR-FRET Liver X Receptor Coactivator Assay, LXR alpha-LBD; assay type: biochemical; conditions: relative to reference T0901317; for EC50: Inflection Point (potency), co-activator recruitment, read-out: LXR alpha IP; for Emax: activity at max dose (efficacy), read-out: LXR alpha act @ max dose (%)
T2 construct: purchased Invitrogen pv4655
T2 sequence (Q13133 209-447 limits assumed): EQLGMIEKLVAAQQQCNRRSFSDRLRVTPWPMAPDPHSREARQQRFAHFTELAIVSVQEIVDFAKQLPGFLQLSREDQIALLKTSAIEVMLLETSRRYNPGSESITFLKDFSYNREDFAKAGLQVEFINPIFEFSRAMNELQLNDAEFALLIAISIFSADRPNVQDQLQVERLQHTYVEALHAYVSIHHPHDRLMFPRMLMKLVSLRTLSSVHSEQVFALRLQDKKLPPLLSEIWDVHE
How it was run: as §1

EC50 [1] | Emax [1] | EC50 [2] | Emax [2] | SMILES
134 nM | 65% | 975 nM | 16% | O=C(c1ccc(N2CCC(C3CCN(C(=O)[C@](O)(c4ccccc4)C(F)(F)F)CC3)CC2)cc1Cl)N1CCCC1C1CC1 (stereo partly drawn) [Example E-57, (2R)-3-(1′-{3-chloro-4-[(2-cyclopropylpyrrolidin-1-yl)carbonyl]phenyl}-4,4′-bipiperidin-1-yl)-1,1,1-trifluoro-3-oxo-2-phenylpropan-2-ol]
57 nM | 98% | 1830 nM | 48% | CN(CCO)C(=O)c1ccc(N2CCC(C3CCN(C(=O)[C@](O)(c4ccccc4)C(F)(F)F)CC3)CC2)cc1Cl [Example E-58, 2-chloro-N-(2-hydroxyethyl)-N-methyl-4-{1′-[(2R)-3,3,3-trifluoro-2-hydroxy-2-phenylpropanoyl]-4,4′-bipiperidin-1-yl}benzamide]
208 nM | 89% | 2380 nM | 21% | CCCCN(C)C(=O)c1ccc(N2CCC(C3CCN(C(=O)[C@](O)(c4ccccc4)C(F)(F)F)CC3)CC2)cc1Cl [Example E-59, N-butyl-2-chloro-N-methyl-4-{1′-[(2R)-3,3,3-trifluoro-2-hydroxy-2-phenylpropanoyl]-4,4′-bipiperidin-1-yl}benzamide]
100 nM | 114% | 1850 nM | 34% | CCN(C)C(=O)c1ccc(N2CCC(C3CCN(C(=O)[C@](O)(c4ccccc4)C(F)(F)F)CC3)CC2)cc1Cl [Example E-60, 2-chloro-N-ethyl-N-methyl-4-{1′-[(2R)-3,3,3-trifluoro-2-hydroxy-2-phenylpropanoyl]-4,4′-bipiperidin-1-yl}benzamide]
100 nM | 94% | 1280 nM | 29% | CCCN(C)C(=O)c1ccc(N2CCC(C3CCN(C(=O)[C@](O)(c4ccccc4)C(F)(F)F)CC3)CC2)cc1Cl [Example E-61, 2-chloro-N-methyl-N-propyl-4-{1′-[(2R)-3,3,3-trifluoro-2-hydroxy-2-phenylpropanoyl]-4,4′-bipiperidin-1-yl}benzamide]
341 nM | 99% | 2060 nM | 33% | CNC(=O)c1ccc(N2CCC(C3CCN(C(=O)[C@](O)(c4ccccc4)C(F)(F)F)CC3)CC2)cc1Cl [Example E-62, 2-chloro-N-methyl-4-{1′-[(2R)-3,3,3-trifluoro-2-hydroxy-2-phenylpropanoyl]-4,4′-bipiperidin-1-yl}benzamide]
21 nM | 86% | 359 nM | 51% | O=C(c1ccc(N2CCC(C3CCN(C(=O)[C@](O)(c4ccccc4)C(F)(F)F)CC3)CC2)cc1Cl)N1CCC[C@H]1CO [Example E-63, (2R)-3-[1′-(3-chloro-4-{[(2S)-2-(hydroxymethyl)pyrrolidin-1-yl]carbonyl}phenyl)-4,4′-bipiperidin-1-yl]-1,1,1-trifluoro-3-oxo-2-phenylpropan-2-ol]
26 nM | 146% | 913 nM | 54% | CN(CCO)C(=O)c1ccc(N2CCC(C3CCN(C(=O)[C@](O)(c4ccccc4)C(F)(F)C(F)(F)F)CC3)CC2)cc1Cl [Example E-64, 2-chloro-N-(2-hydroxyethyl)-N-methyl-4-{1′-[(2R)-3,3,4,4,4-pentafluoro-2-hydroxy-2-phenylbutanoyl]-4,4′-bipiperidin-1-yl}benzamide]
17 nM | 137% | 635 nM | 64% | CC(C)(C)OC(=O)NC1CN(C(=O)c2ccc(N3CCC(C4CCN(C(=O)[C@](O)(c5ccccc5)C(F)(F)C(F)(F)F)CC4)CC3)cc2Cl)C1 [Example E-65, tert-butyl {1-[(2-chloro-4-{1′-[(2R)-3,3,4,4,4-pentafluoro-2-hydroxy-2-phenylbutanoyl]-4,4′-bipiperidin-1-yl}phenyl)carbonyl]azetidin-3-yl}carbamate]
12 nM | 126% | 211 nM | 72% | O=C(c1ccc(N2CCC(C3CCN(C(=O)[C@](O)(c4ccccc4)C(F)(F)C(F)(F)F)CC3)CC2)cc1Cl)N1CCC[C@H]1CO [Example E-66, (2R)-1-[1′-(3-chloro-4-{[(2S)-2-(hydroxymethyl)pyrrolidin-1-yl]carbonyl}phenyl)-4,4′-bipiperidin-1-yl]-3,3,4,4,4-pentafluoro-1-oxo-2-phenylbutan-2-ol]
171 nM | 106% | 2100 nM | 30% | O=C(c1ccc(N2CCC(C3CCN(C(=O)[C@](O)(c4ccccc4)C(F)(F)F)CC3)CC2)cc1Cl)N(CCF)CCF [Example E-67, 2-chloro-N,N-bis(2-fluoroethyl)-4-{1′-[(2R)-3,3,3-trifluoro-2-hydroxy-2-phenylpropanoyl]-4,4′-bipiperidin-1-yl}benzamide]
322 nM | 69% | 996 nM | 56% | CC(C)(C)OC(=O)N1CCC(C2CCN(c3ccc(C(C)(C)O)c(Cl)c3)CC2)CC1 [Example E-69, tert-butyl 1′-[3-chloro-4-(1-hydroxy-1-methylethyl)phenyl]-4,4′-bipiperidine-1-carboxylate]

SMILES | EC50 [1] | Emax [1] | EC50 [2] | Emax [2]
CC(C)(C)OC(=O)NC1CN(C(=O)c2ccc(N3CCC(C4CCN(C(=O)OC(C)(C)C)CC4)CC3)cc2Cl)C1 [Example E-68, tert-butyl 1′-[4-({3-[(tert-butoxycarbonyl)amino]azetidin-1-yl}carbonyl)-3-chlorophenyl]-4,4′-bipiperidine-1-carboxylate] | 29 nM | 92% | 367 nM | 64%
